From paper PMC11855478, “Bicyclic N,S-Acetals Containing Fused Cysteine-Amide System as New Heterocyclic Class Targeting Human Farnesyltransferase (FTase-h)” (International Journal of Molecular Sciences, 2025)

What was measured:
Assay type in all cases: cell-based, human
OVCAR-5 (Ovarian Cancer) = test: NCI one dose, OVCAR-5; settings: OVCAR-5, 1.00E-5 Molar one dose
Description: (§1) 3.4. Cell Proliferation Assay
(§2) Selected compounds were tested on a panel of 60 human cancer cell lines at the National Cancer Institute (NCI), Germantown, MD, USA. The cytotoxicity studies were conducted using a 48 h exposure protocol using the sulfo-rhodamine B assay.

[1] = system: NCI-H226 (Non-Small Cell Lung Cancer); test: NCI one dose, NCI-H226; settings: NCI-H226, 1.00E-5 Molar one dose
Description: as §1, §2

HL-60(TB) (Leukemia) = test: NCI one dose, HL-60(TB); settings: 1.00E-5 Molar one dose
Description: as §1, §2

| SMILES | Growth Percent (OVCAR-5 (Ovarian Cancer)) [%] | Growth Percent [1] [%] | Growth Percent (HL-60(TB) (Leukemia)) [%] |
| --- | --- | --- | --- |
| COc1ccc(CNC(=O)[C@@H]2CS[C@@]3(C)c4ccccc4C(=O)N23)cc1 [4bF] | 107.98 |  |  |
| COc1cc(CNC(=O)[C@@H]2CS[C@@]3(C)c4ccccc4C(=O)N23)cc(OC)c1OC [4bJ] | 102.06 |  |  |
| COc1cc(CNC(=O)[C@@H]2CS[C@H]3c4ccccc4C(=O)N23)cc(OC)c1OC [4aJ] | 94.62 | 97.62 | 96.47 |
| COc1ccccc1CNC(=O)[C@@H]1CS[C@@]2(C)c3ccccc3C(=O)N12 [4bG] | 107.74 |  |  |
| COc1ccc(CNC(=O)[C@@H]2CS[C@H]3c4ccccc4C(=O)N23)cc1OC [4aI] | 102.57 |  |  |
| C[C@@]12SC[C@@H](C(=O)NCc3ccccc3Br)N1C(=O)c1ccccc12 [4bB] | 93.99 |  |  |
| O=C(NCc1ccc(Cl)cc1Cl)[C@@H]1CS[C@H]2c3ccccc3C(=O)N12 [4aH] | 104.58 | 95.83 | 93.16 |
| COc1ccc(CNC(=O)[C@@H]2CS[C@@]3(C)c4ccccc4C(=O)N23)cc1OC [4bI] | 111.28 |  |  |
| COc1cccc(CNC(=O)[C@@H]2CS[C@H]3c4ccccc4C(=O)N23)c1 [4aE] | 113.91 |  |  |
| O=C(NCc1ccccc1)[C@@H]1CS[C@H]2c3ccccc3C(=O)N12 [4aA] | 91.72 | 86.94 | 102.43 |
| C[C@@]12SC[C@@H](C(=O)NCc3ccccc3)N1C(=O)c1ccccc12 [4bA] | 97.87 |  |  |
| COc1ccc(CNC(=O)[C@@H]2CS[C@H]3c4ccccc4C(=O)N23)cc1 [4aF] | 95.48 | 101.53 | 97.30 |
| O=C(NCc1cccc(C(F)(F)F)c1)[C@@H]1CS[C@H]2c3ccccc3C(=O)N12 [4aD] | 97.67 | 100.68 | 96.47 |
| O=C(NCc1ccccc1C(F)(F)F)[C@@H]1CS[C@H]2c3ccccc3C(=O)N12 [4aC] | 83.18 | 95.46 | 101.08 |
| C[C@@]12SC[C@@H](C(=O)NCc3cccc(C(F)(F)F)c3)N1C(=O)c1ccccc12 [4bD] | 104.21 |  |  |
| COc1ccccc1CNC(=O)[C@@H]1CS[C@H]2c3ccccc3C(=O)N12 [4aG] | 112.94 |  |  |
| C[C@@]12SC[C@@H](C(=O)NCc3ccc(Cl)cc3Cl)N1C(=O)c1ccccc12 [4bH] | 99.53 |  |  |
| COc1cccc(CNC(=O)[C@@H]2CS[C@@]3(C)c4ccccc4C(=O)N23)c1 [4bE] | 110.33 |  |  |
| C[C@@]12SC[C@@H](C(=O)NCc3ccccc3C(F)(F)F)N1C(=O)c1ccccc12 [4bC] | 102.51 |  |  |
